Test results published in patent US20130189714A1, “METHOD FOR THE DETECTION AND/OR QUANTIFICATION OF THE INTERACTION OF PLATELETS WITH INTERACTION PARTNERS” (SANOFI, priority 2010, published 2013).
Residues, ends and D or L forms follow the SMILES beside them.

Legend:
[1] = test system: interaction of platelets with collagen 1 (rat tail); assay: platelet-collagen 1 interaction assay (counter-screen); type: cell-based, human; conditions: test substances at 10 μM
Experimental: For this assay essentially the same set up was used as described above for testing the adhesion of platelets onto A1-coated plates.
To coat wells with rat tail collagen1, a stock solution consisting of 200 μg/ml Collagen I (rat tail, SIGMA (C8897)) in 0.01 M acetic acid was prepared. This solution was diluted with 0.01 M acetic acid to 10 μg/ml and 25 μl was added to a 384 well. Plates were incubated overnight at 4 C for binding of collagen1 to the well. One hour before test substance addition, the wells of the plates were blocked with BSA as described above. Also the preparation, labeling and dispension of platelets was as described for vWF-A1. For the platelet adhesion to collagen I, the concentration of MgCl2 was increased to 4 mM and the number of platelets added per well to 50 000 platelets. Using these conditions, the assay was able to detect the interaction of specific inhibitors with good statistical parameters, see FIG. 11.
A set of 6 plates were tested under automated conditions. For all plates a Z′ value above 0.5 was obtained with a S/B of 20 or more.
A training set composed 69 test substances in total was used to validate this assay. […]

[2] = target: T1, interaction of platelets (GPIb) with vWF-A1 domain (Homo sapiens, UniProt P07359); assay: platelet adhesion to wells coated with vWF-A1 (calcein-AM labelled platelets, Acumen laser-scanning cytometry); type: cell-based
T1 construct: it is advantageous to use whole platelets instead of the isolated GpIb protein; host or cells: human platelets from platelet concentrate
Experimental: 25 μl of the TBS-vWF-A1-Coating/Blocking-Puffer 1× (containing 15 μg/ml vWF-A1) is added sterile per well using a Multidrop from Labsystems. Plates were incubated and stored minimally overnight up to one week. Storage is at 4 C, sterile and protected against evaporation.
One hour before test substance addition, the wells of the plates were blocked with BSA. Before the wells were washed with 1×TBS-Washbuffer, 60 μl/Well using an ELx405 Microplate Washer (96 wells) from Biotek.
Immediately after (wells should not dry out) the wells were blocked 5% BSA-Fatty acid free 40 μl/Well using a Multidrop from Labsystems. Wells were incubated 1-2 hours until test substances were added.
Sealed plates delivered from test substance management were stored at −20° C. until use. Test substances were dissolved in 100% DMSO at 3 mM. Test substances were diluted in TBS-Adhaesionbuffer 1× till 10 μM final concentration. Diluted test substance were stored at RT and used within hours. HTS occurred in single-point determination.
Surplus of BSA is washed away by washing the wells with 1×TBS-Washbuffer, 60 μl/Well using an ELx405 Microplate Washer (96 wells) from Biotek, followed by the addition of 10 μl test substance solution or high and low control using Cybio robotics. Plates were not allowed to dry out.
LOW-Control: no vWF-A1-Coating, just BSA-treated plates for blocking HIGH-Control: vWF-A1+ Standard (non-toxic GPIb inhibitor) vWF-A1+ and OS-1 10 μM
The total time needed between removing the platelets from the platelet concentrate, as obtained from the German Red Cross and disoensing the platelets into the multiwall plates should be between 45-60 mins.
The bag containing the platelet concentrate, as obtained from the German Red Cross, is removed from the agitation table (see 1.2; cells) and is put in a sterile flow cabinet on an absorbing towel to absorb any spills. The tubing, tube clamps and scissors are sterilized with 70% ethanol in water.
The tubing from the bag with platelet concentrate is clamped and the tubing is cut. The clamp is released and the first ca. 10 ml concentrate that comes out of the bag is discarded. 30 ml concentrate is poured into n 50 ml BD-Falcon tube made of polypropylene.
Next, 2.5 μl PGE-stock (0.5 mg/ml) is added to an empty 12 ml round-bottom tube made of polypropylene (Greiner). To this 5 ml platelet concentrate is added (final concentration of PGE1 is 0.25 μg/ml) and the tube is gently mixed and incubated 5 min at RT. […]

T1 sequence (P07359 17-652): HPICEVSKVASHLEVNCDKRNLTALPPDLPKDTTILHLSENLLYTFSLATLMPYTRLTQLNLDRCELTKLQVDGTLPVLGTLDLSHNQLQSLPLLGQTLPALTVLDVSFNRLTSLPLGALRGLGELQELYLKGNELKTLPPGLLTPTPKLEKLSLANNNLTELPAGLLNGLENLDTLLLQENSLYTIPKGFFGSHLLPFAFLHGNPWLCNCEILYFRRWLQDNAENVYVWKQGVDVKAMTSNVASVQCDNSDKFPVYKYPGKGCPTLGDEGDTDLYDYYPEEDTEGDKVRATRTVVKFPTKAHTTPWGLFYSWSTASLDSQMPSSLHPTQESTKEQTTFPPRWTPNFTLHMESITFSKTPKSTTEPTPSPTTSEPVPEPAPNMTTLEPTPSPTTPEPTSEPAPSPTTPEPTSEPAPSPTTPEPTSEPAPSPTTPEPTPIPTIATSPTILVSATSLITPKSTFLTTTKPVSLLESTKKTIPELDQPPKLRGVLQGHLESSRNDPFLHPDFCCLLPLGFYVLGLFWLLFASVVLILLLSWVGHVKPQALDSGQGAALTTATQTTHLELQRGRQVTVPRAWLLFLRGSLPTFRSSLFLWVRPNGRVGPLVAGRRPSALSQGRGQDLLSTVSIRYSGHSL
T1 sequence (P13224 26-206 partner): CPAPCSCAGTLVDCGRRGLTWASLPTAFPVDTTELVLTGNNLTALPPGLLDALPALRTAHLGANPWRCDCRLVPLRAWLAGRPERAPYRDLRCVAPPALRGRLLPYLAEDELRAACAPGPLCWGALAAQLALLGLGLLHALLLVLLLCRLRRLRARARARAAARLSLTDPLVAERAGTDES
T1 sequence (P14770 17-177 partner): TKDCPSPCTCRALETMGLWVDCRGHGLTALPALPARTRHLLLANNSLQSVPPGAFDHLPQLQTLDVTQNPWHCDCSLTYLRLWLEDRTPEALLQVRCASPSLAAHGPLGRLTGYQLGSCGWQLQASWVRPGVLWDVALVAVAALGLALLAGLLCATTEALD

SMILES: CSCC[C@@H]1NC(=O)[C@H](CCCNC(=N)N)NC(=O)[C@H](CCC(=O)O)NC(=O)[C@H]([C@@H](C)O)NC(=O)[C@@H](N)CSSC[C@@H](C(=O)O)NC(=O)[C@H](CC(C)C)NC(=O)[C@H](CC(N)=O)NC(=O)[C@H](Cc2c[nH]cn2)NC(=O)[C@H](CC(C)C)NC(=O)[C@H](C)NC1=O [OS-1] (HELM PEPTIDE1{C.T.E.R.M.A.L.H.N.L.C}$PEPTIDE1,PEPTIDE1,1:R3-11:R3$$$V2.0; N-terminus and C-terminus assumed)
- inhibition of the platelet interaction with collagen [1]: did not inhibit
- inhibition at 10 µM ([2]; OS-1 at 10 μM, optimized washer settings, FIG. 6): ~90%
- inhibition by OS-1 during fully automated run of 30 plates ([2]; all plates of the run, FIG. 9): high inhibition
- inhibition of platelet attachment to vWF-A1 (in words) ([2]; optimized washer program, FIG. 6 legend): almost complete inhibition
- effect of increasing plate storage times on inhibition ([2]; prolonged storage at room temperature, FIG. 8): almost constant values
